Drawing on patent US9796704B2, “Substituted quinazolines as receptor-type kinase inhibitors” (Symphony Evolution, Inc., priority 2002, dated 2017), this text covers IC50 for 21 compounds.

Where two headings read alike, the source gives them in different places.

In assay [1] the target is ErbB2 (Homo sapiens (Human), UniProt P04626). Briefly: ErbB2 kinase inhibition, AlphaScreen. Format: biochemical. As to the method:
Kinase activity and compound inhibition are investigated using one or more of the three assay formats described below. The ATP concentrations are selected near its Michaelis-Menten constant (KM) for each individual kinase. Dose-response experiments are performed at ten different inhibitor concentrations in a 384-well plate format. […] These parameters are obtained by nonlinear regression algorithm built into ActivityBase software (available from ID Business Solutions Ltd., of Guildford, Surrey, UK). ^33P Phosphoryl Transfer Assay (Radiometric)
For orientation: In Alpha technology, singlet oxygen from a donor bead excites a nearby acceptor bead.

Assay [2] has as its target KDR (Homo sapiens (Human), UniProt P35968). Kind of assay: KDR kinase inhibition, luciferase-coupled chemiluminescent assay (LCCA).
Protocol: Kinase activity and compound inhibition are investigated using one or more of the three assay formats described below. The ATP concentrations are selected near its Michaelis-Menten constant (KM) for each individual kinase. Dose-response experiments are performed at ten different inhibitor concentrations in a 384-well plate format. […] Typically H is close to unity.
In the LCCA assays, kinase activity is measured by the ATP consumption that is accurately measured by luciferase-coupled chemiluminescence. Greiner 384-well white clear bottom medium binding plates are used for LCCA. Briefly the kinase reaction is initiated by mixing compounds, ATP and kinases in a 20 μL volume. At the end of the kinase reaction, a 20 μL luciferase-luciferin mix is added and the chemiluminescent signal is read on a Wallac Victor^2 reader.
For assay [3], the target named is EphB4 (Homo sapiens (Human), UniProt P54760). Kind of assay: EphB4 kinase inhibition, 33P phosphoryl transfer assay (radiometric). Format: biochemical.
Assay [4] concerns the target EphA2 (Homo sapiens (Human), UniProt P29317). Briefly: EphA2 kinase inhibition, luciferase-coupled chemiluminescent assay (LCCA).
The target of assay [5] is EGFR (Homo sapiens (Human), UniProt P00533). Kind of assay: EGFR kinase inhibition, luciferase-coupled chemiluminescent assay (LCCA).

Sequence of EphA2 (P29317 598-890): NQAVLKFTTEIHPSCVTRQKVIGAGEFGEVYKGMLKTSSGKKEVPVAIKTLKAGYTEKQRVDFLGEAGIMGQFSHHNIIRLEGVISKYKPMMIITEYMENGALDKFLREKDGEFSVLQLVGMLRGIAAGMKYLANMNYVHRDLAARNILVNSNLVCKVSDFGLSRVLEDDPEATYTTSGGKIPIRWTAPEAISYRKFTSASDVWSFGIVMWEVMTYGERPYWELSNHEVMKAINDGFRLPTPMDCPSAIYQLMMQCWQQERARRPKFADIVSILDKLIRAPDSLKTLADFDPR
Sequence of KDR (P35968 807-1356): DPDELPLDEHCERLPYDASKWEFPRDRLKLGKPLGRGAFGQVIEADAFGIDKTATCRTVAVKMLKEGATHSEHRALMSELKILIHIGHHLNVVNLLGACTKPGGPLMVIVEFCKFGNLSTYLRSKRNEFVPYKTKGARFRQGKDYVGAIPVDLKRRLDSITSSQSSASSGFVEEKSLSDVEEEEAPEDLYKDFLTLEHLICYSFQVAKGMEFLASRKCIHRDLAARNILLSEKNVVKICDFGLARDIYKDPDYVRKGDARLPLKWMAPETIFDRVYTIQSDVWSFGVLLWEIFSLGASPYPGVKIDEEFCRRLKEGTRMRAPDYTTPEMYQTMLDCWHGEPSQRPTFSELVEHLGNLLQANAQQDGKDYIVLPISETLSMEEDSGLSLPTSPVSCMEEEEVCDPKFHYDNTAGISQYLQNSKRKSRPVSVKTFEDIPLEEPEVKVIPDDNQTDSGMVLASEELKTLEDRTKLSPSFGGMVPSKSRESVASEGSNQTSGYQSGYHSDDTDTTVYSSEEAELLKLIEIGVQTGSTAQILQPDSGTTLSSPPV
Sequence of EphB4 (P54760 605-890): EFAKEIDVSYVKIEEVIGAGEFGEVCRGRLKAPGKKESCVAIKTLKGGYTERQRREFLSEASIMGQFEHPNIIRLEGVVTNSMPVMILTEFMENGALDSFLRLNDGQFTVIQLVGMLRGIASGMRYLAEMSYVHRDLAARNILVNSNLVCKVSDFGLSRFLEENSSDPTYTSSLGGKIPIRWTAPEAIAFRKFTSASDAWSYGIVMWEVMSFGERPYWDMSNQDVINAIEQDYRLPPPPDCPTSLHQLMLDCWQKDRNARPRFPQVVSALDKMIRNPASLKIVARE

For `COc1cc2c(Nc3ccc(Cl)c(Cl)c3)ncnc2cc1OCC1CN(C(=NC#N)N2CCCCC2)CCO1` (stereo in doubt) [Example 216, [(1E)-[2-({[4-[(3,4-dichlorophenyl)amino]-6-(methyloxy)quinazolin-7-yl]oxy}methyl)morpholin-4-yl](piperidin-1-yl)methylidene]cyanamide], the IC50 (in general, the concentration that gives 50% inhibition) in assay [1] is under 50 nM; in assay [2], 50 to 1000 nM; in assay [3], under 50 nM; in assay [4], 50 to 1000 nM; in assay [5], under 50 nM.
For the compound `COc1cc2c(Nc3cc(Cl)c(Cl)cc3F)ncnc2cc1O[C@H]1CO[C@H]2[C@@H]1OC[C@@H]2OC` [Example 69, 1,4:3,6-dianhydro-2-O-[4-[(4,5-dichloro-2-fluorophenyl)amino]-6-(methyloxy)quinazolin-7-yl]-5-O-methyl-L-iditol], the IC50 in assay [1], in assay [2] (read-out: KDR IC50), in assay [3], in assay [4] (read-out: EphA2 IC50) and in assay [5] (read-out: EGFR IC50) was under 50 nM each time.
`COc1cc2c(Nc3ccc(Br)c(Cl)c3)ncnc2cc1O[C@H]1CO[C@@H]2CCO[C@H]12` [Example 77, 1,4:3,6-dianhydro-2-O-[4-[(4-bromo-3-chlorophenyl)amino]-6-(methyloxy)quinazolin-7-yl]-5-deoxy-D-xylo-hexitol]: the IC50 is under 50 nM in assay [1], under 50 nM in assay [3], 50 to 1000 nM in assay [4] (read-out: EphA2 IC50) and under 50 nM in assay [5] (read-out: EGFR IC50).
As to `COc1cc2c(Nc3ccc(Cl)c(Cl)c3)ncnc2cc1O[C@@H]1CO[C@@H]2[C@H]1OC[C@H]2F` [Example 119, 1,4:3,6-dianhydro-2-deoxy-5-O-[4-[(3,4-dichlorophenyl)amino]-6-(methyloxy)quinazolin-7-yl]-2-fluoro-D-iditol], the 50% inhibitory concentration (IC50) in assay [1], in assay [2] (read-out: KDR IC50), in assay [3], in assay [4] (read-out: EphA2 IC50) and in assay [5] (read-out: EGFR IC50) was under 50 nM throughout.
As for `COc1cc2c(Nc3cc(Br)cc(C(F)(F)F)c3)ncnc2cc1O[C@@H]1CO[C@@H]2[C@H]1OC[C@H]2F` [Example 127, 1,4:3,6-dianhydro-5-O-[4-{[3-bromo-5-(trifluoromethyl)phenyl]amino}-6-(methyloxy)quinazolin-7-yl]-2-deoxy-2-fluoro-D-iditol], the IC50 in assay [1], in assay [2] (read-out: KDR IC50), in assay [3], in assay [4] (read-out: EphA2 IC50) and in assay [5] (read-out: EGFR IC50) was under 50 nM each time.
As to `COc1cc2c(Nc3ccc(Cl)c(Cl)c3)ncnc2cc1OCc1ccc2nonc2c1` [Example 163, 7-[(2,1,3-benzoxadiazol-5-ylmethyl)oxy]-N-(3,4-dichlorophenyl)-6-(methyloxy)quinazolin-4-amine], the IC50 in assay [1], in assay [3] and in assay [5] (read-out: EGFR IC50) was under 50 nM each time.
Consider `COc1cc2c(Nc3ccc(Cl)c(Cl)c3)ncnc2cc1OCc1noc(-c2ccc(C(F)(F)F)cc2)n1` [Example 167, N-(3,4-dichlorophenyl)-6-(methyloxy)-7-[({5-[4-(trifluoromethyl)phenyl]-1,2,4-oxadiazol-3-yl}methyl)oxy]quinazolin-4-amine], for which the IC50 in assay [1], in assay [3], in assay [4] (read-out: EphA2 IC50) and in assay [5] (read-out: EGFR IC50) was under 50 nM throughout.
On to `COc1cc2c(Nc3ccc(Cl)c(Cl)c3)ncnc2cc1OCc1cscn1` [Example 170, N-(3,4-dichlorophenyl)-6-(methyloxy)-7-[(1,3-thiazol-4-ylmethyl)oxy]quinazolin-4-amine], for which the IC50 in assay [1], in assay [3], in assay [4] (read-out: EphA2 IC50) and in assay [5] (read-out: EGFR IC50) was under 50 nM each time.
Regarding `COc1cc2c(Nc3ccc(Cl)c(Cl)c3)ncnc2cc1OCc1c(-c2ccccc2)nn(C)c1Cl` [Example 175, 7-{[(5-chloro-1-methyl-3-phenyl-1H-pyrazol-4-yl)methyl]oxy}-N-(3,4-dichlorophenyl)-6-(methyloxy)quinazolin-4-amine], the IC50 in assay [1], in assay [3] and in assay [5] (read-out: EGFR IC50) was under 50 nM in each case.
`COc1cc2c(Nc3ccc(Cl)c(Cl)c3)ncnc2cc1OCC1CCCO1` (centres unmarked) [Example 183, N-(3,4-dichlorophenyl)-6-(methyloxy)-7-[(tetrahydrofuran-2-ylmethyl)oxy]quinazolin-4-amine]: the IC50 is under 50 nM in assay [1], under 50 nM in assay [3], 50 to 1000 nM in assay [4] (read-out: EphA2 IC50) and under 50 nM in assay [5] (read-out: EGFR IC50).
On to `COc1cc2c(Nc3ccc(Cl)c(Cl)c3)ncnc2cc1OCC1CCC1` [Example 187, 7-[(cyclobutylmethyl)oxy]-N-(3,4-dichlorophenyl)-6-(methyloxy)quinazolin-4-amine], for which the IC50 in assay [1] was under 50 nM; in assay [3], under 50 nM; in assay [4] (read-out: EphA2 IC50) it was 50 to 1000 nM; in assay [5] (read-out: EGFR IC50), under 50 nM.
Turning to `COc1cc2c(Nc3ccc(Cl)c(Cl)c3)ncnc2cc1OCCN1C(=O)c2ccccc2C1=O` [Example 193, 2-(2-{[4-[(3,4-dichlorophenyl)amino]-6-(methyloxy)quinazolin-7-yl]oxy}ethyl)-1H-isoindole-1,3(2H)-dione], the IC50 in assay [1] is under 50 nM; in assay [2] (read-out: KDR IC50), under 50 nM; in assay [3], under 50 nM; in assay [4] (read-out: EphA2 IC50), 50 to 1000 nM; in assay [5] (read-out: EGFR IC50) it was under 50 nM.
As to `COc1cc2c(Nc3ccc(Cl)c(Cl)c3)ncnc2cc1OCc1noc(C2CCCCN2C(=O)OC(C)(C)C)n1` (centres unmarked) [Example 196, 1,1-dimethylethyl 2-[3-({[4-[(3,4-dichlorophenyl)amino]-6-(methyloxy)quinazolin-7-yl]oxy}methyl)-1,2,4-oxadiazol-5-yl]piperidine-1-carboxylate], the IC50 in assay [1], in assay [2] (read-out: KDR IC50), in assay [3], in assay [4] (read-out: EphA2 IC50) and in assay [5] (read-out: EGFR IC50) was under 50 nM throughout.
As for `COc1cc2c(Nc3ccc(Cl)c(Cl)c3)ncnc2cc1OCc1nc(-c2ccc(N3CCCC3)cc2)cs1` [Example 198, N-(3,4-dichlorophenyl)-6-(methyloxy)-7-({[4-(4-pyrrolidin-1-ylphenyl)-1,3-thiazol-2-yl]methyl}oxy)quinazolin-4-amine], the IC50 in assay [1], in assay [2] (read-out: KDR IC50), in assay [3], in assay [4] (read-out: EphA2 IC50) and in assay [5] (read-out: EGFR IC50) was under 50 nM each time.
With `CCN(CC)c1ccc(-c2csc(COc3cc4ncnc(Nc5ccc(Cl)c(Cl)c5)c4cc3OC)n2)cc1` [Example 199, N-(3,4-dichlorophenyl)-7-[({4-[4-(diethylamino)phenyl]-1,3-thiazol-2-yl}methyl)oxy]-6-(methyloxy)quinazolin-4-amine], the IC50 in assay [1], in assay [2] (read-out: KDR IC50), in assay [3], in assay [4] (read-out: EphA2 IC50) and in assay [5] (read-out: EGFR IC50) was under 50 nM each time.
Take `COc1cc2c(Nc3ccc(Cl)c(Cl)c3)ncnc2cc1OCc1nc(-c2ccccn2)cs1` [Example 202, N-(3,4-dichlorophenyl)-6-(methyloxy)-7-{[(4-pyridin-2-yl-1,3-thiazol-2-yl)methyl]oxy}quinazolin-4-amine]: the IC50 in assay [1] was under 50 nM; in assay [3], under 50 nM; in assay [4] (read-out: EphA2 IC50) it was 50 to 1000 nM; in assay [5] (read-out: EGFR IC50), under 50 nM.
With `COc1cc2c(Nc3ccc(Cl)c(Cl)c3)ncnc2cc1OCc1csc(N2CCOCC2)n1` [Example 204, N-(3,4-dichlorophenyl)-6-(methyloxy)-7-{[(2-morpholin-4-yl-1,3-thiazol-4-yl)methyl]oxy}quinazolin-4-amine], the IC50 in assay [1], in assay [2] (read-out: KDR IC50), in assay [3], in assay [4] (read-out: EphA2 IC50) and in assay [5] (read-out: EGFR IC50) was under 50 nM in each case.
On to `COc1cc2c(Nc3ccc(Cl)c(Cl)c3)ncnc2cc1OCc1nc(CN2CCN(C)CC2)cs1` [Example 207, N-(3,4-dichlorophenyl)-6-(methyloxy)-7-[({4-[(4-methylpiperazin-1-yl)methyl]-1,3-thiazol-2-yl}methyl)oxy]quinazolin-4-amine], for which the IC50 in assay [1] was under 50 nM; in assay [3], under 50 nM; in assay [4] (read-out: EphA2 IC50), 50 to 1000 nM; in assay [5] (read-out: EGFR IC50), under 50 nM.
Take `COc1cc2c(Nc3ccc(Cl)c(Cl)c3)ncnc2cc1OCc1nc(N2CCN(C(=O)OC(C)(C)C)CC2)no1` [Example 215, 1,1-dimethylethyl 4-[5-({[4-[(3,4-dichlorophenyl)amino]-6-(methyloxy)quinazolin-7-yl]oxy}methyl)-1,2,4-oxadiazol-3-yl]piperazine-1-carboxylate]: the half-maximal inhibitory concentration (IC50) in assay [1] was under 50 nM; in assay [3], under 50 nM; in assay [4] (read-out: EphA2 IC50) it was 50 to 1000 nM; in assay [5] (read-out: EGFR IC50), under 50 nM.
For the compound `COc1cc2c(Nc3ccc(Cl)c(Cl)c3)ncnc2cc1OCc1nc(-c2ccc(C(C)(C)C)cc2)no1` [Example 226, N-(3,4-dichlorophenyl)-7-[({3-[4-(1,1-dimethylethyl)phenyl]-1,2,4-oxadiazol-5-yl}methyl)oxy]-6-(methyloxy)quinazolin-4-amine], the IC50 was under 50 nM in assay [1]; under 50 nM in assay [2] (read-out: KDR IC50); under 50 nM in assay [3]; 50 to 1000 nM in assay [4] (read-out: EphA2 IC50); under 50 nM in assay [5] (read-out: EGFR IC50).
As to “N-(3,4-dichlorophenyl)-7-({[2-(1-ethylpiperidin-4-yl)-1,3-thiazol-4-yl]methyl}oxy)-6-(methyloxy)quinazolin-4-amine hydrochloride [Example 37]”, the IC50 in assay [1] is under 50 nM; in assay [3] it was 50 to 1000 nM; in assay [4] (read-out: EphA2 IC50), under 50 nM; in assay [5] (read-out: EGFR IC50) it was under 50 nM.
